Test results published in patent US11096985B2, “Antimicrobial peptides, their variants and uses” (priority 2015, dated 2021).
Where a SMILES comes first, the peptide text is derived from it. [ ]: non-standard residue; d: D form.

Columns and labels:
[1] = tested on: clinical strains of C. glabrata; test: MIC, clinical yeast strains, C. glabrata; format: cell-based, Candida glabrata; design: unit: μg/ml
How it was run: (§1)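 By broth microdilution, Chain peptides from 0.125 to 128 μg/ml were tested against clinical strains adjusted to 5.0×10^5 cfu/ml, with bacteria in MH broth and yeasts in Potato dextrose broth. After 20–24 h at 37 °C, the lowest peptide concentration without visible growth was scored as MIC.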

[2] = tested on: clinical strains of Pseudomonas aeruginosa; test: MIC, clinical strains of P. aeruginosa; format: cell-based; design: unit: μg/ml; settings: microdilution, Muller Hinton broth-cation adjusted, 0.02% BSA, 0.2% acetic acid
How it was run: as §1

[3] = tested on: clinical strains of Serratia marcescens; test: MIC, clinical strains of Serratia marcescens; format: cell-based; design: unit: µg/mL; settings: microdilution, Muller Hinton broth-cation adjusted, 0.02% BSA, 0.2% acetic acid
How it was run: as §1

[4] = tested on: clinical strains of Streptococcus pneumoniae; test: MIC, clinical strains of Streptococcus pneumoniae; format: cell-based; design: unit: µg/mL; settings: microdilution, Muller Hinton broth-cation adjusted, 0.02% BSA, 0.2% acetic acid
How it was run: as §1

[5] = tested on: clinical strains of Candida albicans; test: MIC, clinical yeast strains, Candida albicans; format: cell-based; design: unit: μg/ml
How it was run: as §1

[6] = tested on: clinical strains of C. quillermondiae; test: MIC, clinical yeast strains, C. quillermondiae; format: cell-based; settings: C. quillermondiae clinical yeast strain 1
How it was run: as §1

[7] = tested on: clinical strains of Enterobacter cloacae; test: MIC, clinical strains of Enterobacter cloacae; format: cell-based; design: unit: μg/ml; settings: microdilution, Muller Hinton broth-cation adjusted, 0.02% BSA, 0.2% acetic acid
How it was run: as §1

[8] = tested on: clinical strains of Klebsiella pneumoniae; test: MIC, clinical strains of K. pneumoniae; format: cell-based; design: unit: μg/ml; settings: microdilution, Muller Hinton broth-cation adjusted, 0.02% BSA, 0.2% acetic acid
How it was run: as §1

[9] = tested on: clinical strains of C. parapsilosis; test: MIC, clinical yeast strains, C. parapsilosis; format: cell-based, Candida parapsilosis; design: unit: μg/ml
How it was run: as §1

[10] = tested on: clinical strains of Escherichia coli; test: MIC, clinical strains of E. coli; format: cell-based; design: unit: μg/ml; settings: microdilution, Muller Hinton broth-cation adjusted, 0.02% BSA, 0.2% acetic acid
How it was run: as §1

[11] = tested on: clinical strains of Acinetobacter baumannii; test: MIC, clinical strains of Acinetobacter baumannii; format: cell-based; settings: microdilution, Muller Hinton broth-cation adjusted, 0.02% BSA, 0.2% acetic acid
Procedure: Minimum inhibition concentrations (MICs) were determined against Escherichia coli (ATCC 25922), Staphylococcus aureus (ATCC 25923), Klebsiella pneumoniae (ATCC 10031) and Pseudomonas aeruginosa (ATCC 27853). Also clinical strains of E. coli, K. pneumoniae, E. cloacae, P. aeruginosa, Serratia marcescens, Proteus mirabilis, S. pneumoniae, Acinetobacter baumannii, A. johnsonii and S. aureus were used for MICs assays. Additionally, clinical strains of yeast including Candida albicans, C. glabrata, C. parapsilosis and C. quillermondiae were used. The susceptibility of these microorganisms to Chain peptides were determined using micro broth dilution assay. Colonies of the respective microorganism from Muller Hinton (MH) agar plates incubated overnight were suspended in MH broth media and final concentration of microorganism was adjusted to 5.0×10^5 cfu/ml. An aliquot of 10 μl of each Chain peptide, or gentamicin, tetracycline as reference antibiotics were added in differing concentrations along with 90 μl of bacterial suspension to 96 well polypropylene plates and incubated at 37° C. for 20 to 24 hours. Concentrations of Chain peptides and reference antibiotics ranged from 0.125 to 128 μg/ml and the MICs were recorded as the lowest concentration with no visual growth of bacteria. Similarly, antifungal MICs were tested in Potato dextrose broth.
Clinical strains of yeasts including Candida albicans, C. glabrata, C. parapsilosis and C. quillermondiae were also tested with the 12 Chain peptides. The minimum inhibitory concentration (MICs) varied between these peptides and are presented in Tables 4a, 4b, 4c and 5a, 5b, 5c. Peptides Chain 105, 201 and 308 are broad spectrum antimicrobials with MICs between 0.5-32 μg/ml against all the bacteria and yeasts tested, except Serratia marcescens and Proteus mirabilis, against which the MICs were between 64-128 μg/ml. Peptide Chain 306 has narrow spectrum activity against E.coli at 1 μg/ml and for the rest of the bacterial strains at >32 μg/ml (FIG. 10).

[12] = tested on: clinical strains of Staphylococcus aureus; test: MIC, clinical strains of S. aureus; format: cell-based; design: unit: μg/ml; settings: microdilution, Muller Hinton broth-cation adjusted, 0.02% BSA, 0.2% acetic acid
How it was run: as §1

[13] = tested on: clinical strains of Proteus mirabilis; test: MIC, clinical strains of Proteus mirabilis; format: cell-based; design: unit: µg/mL; settings: microdilution, Muller Hinton broth-cation adjusted, 0.02% BSA, 0.2% acetic acid
How it was run: as §1

**Q.** `CC[C@@H](C)[C@@H](NC(=O)[C@@H](CC(C)C)NC(=O)[C@@H](CCCNC(=N)N)NC(=O)[C@H](N)CCCNC(=N)N)C(=O)N[C@H](Cc1c[nH]c2ccccc12)C(=O)N[C@H](CCCNC(=N)N)C(=O)N[C@H](CCCNC(=N)N)C(=O)N[C@H](Cc1ccccc1)C(=O)N[C@H](CCCCN)C(=O)N[C@H](Cc1c[nH]c2ccccc12)C(=O)N[C@H](CC(C)C)C(=O)N[C@H](CCCNC(=N)N)C(=O)O` [Chain204D] (H-[dR][dR][dL][dI][dW][dR][dR][dF][dK][dW][dL][dR]-OH) was tested. Which Minimum inhibitory concentration ([1]; C. glabrata clinical yeast strain 1) did it give?
**A.** The Minimum inhibitory concentration was 4.

**Q.** And the Minimum inhibitory concentration ([1]; C. glabrata clinical yeast strain 2)?
**A.** The Minimum inhibitory concentration was 8.

**Q.** What about the Minimum inhibitory concentration ([1]; C. glabrata clinical yeast strain 3) of the same molecule?
**A.** Its Minimum inhibitory concentration is 32.

**Q.** What about the Minimum inhibitory concentration ([1]; C. glabrata clinical yeast strain 4) of the same molecule?
**A.** Its Minimum inhibitory concentration is 32.

**Q.** And the Minimum inhibitory concentration ([2]; Pseudomonas aeruginosa clinical strain 1)?
**A.** Its Minimum inhibitory concentration is 4.

**Q.** What about the Minimum inhibitory concentration ([2]; Pseudomonas aeruginosa clinical strain 2) of the same molecule?
**A.** The Minimum inhibitory concentration was 16.

**Q.** And the Minimum inhibitory concentration ([2]; Pseudomonas aeruginosa clinical strain 3)?
**A.** Its Minimum inhibitory concentration is 8.

**Q.** What about the Minimum inhibitory concentration ([2]; Pseudomonas aeruginosa clinical strain 4) of the same molecule?
**A.** The Minimum inhibitory concentration was 8.

**Q.** And the Minimum inhibitory concentration ([2]; Pseudomonas aeruginosa clinical strain 5)?
**A.** The Minimum inhibitory concentration was 4.

**Q.** And the Minimum inhibitory concentration ([3]; Serratia marcescens clinical strain 1)?
**A.** Its Minimum inhibitory concentration is greater than 128.

**Q.** What about the Minimum inhibitory concentration ([3]; Serratia marcescens clinical strain 2) of the same molecule?
**A.** Its Minimum inhibitory concentration is greater than 128.

**Q.** And the Minimum inhibitory concentration ([3]; Serratia marcescens clinical strain 3)?
**A.** The Minimum inhibitory concentration was 128.

**Q.** What about the Minimum inhibitory concentration ([3]; Serratia marcescens clinical strain 4) of the same molecule?
**A.** Its Minimum inhibitory concentration is greater than 128.

**Q.** What about the Minimum inhibitory concentration ([3]; Serratia marcescens clinical strain 5) of the same molecule?
**A.** The Minimum inhibitory concentration was greater than 128.

**Q.** And the Minimum inhibitory concentration ([4]; Streptococcus pneumoniae clinical strain 1)?
**A.** The Minimum inhibitory concentration was 4.

**Q.** And the Minimum inhibitory concentration ([4]; Streptococcus pneumoniae clinical strain 2)?
**A.** Its Minimum inhibitory concentration is 4.

**Q.** What about the Minimum inhibitory concentration ([4]; Streptococcus pneumoniae clinical strain 3) of the same molecule?
**A.** Its Minimum inhibitory concentration is 4.

**Q.** And the Minimum inhibitory concentration ([4]; Streptococcus pneumoniae clinical strain 4)?
**A.** The Minimum inhibitory concentration was 4.

**Q.** And the Minimum inhibitory concentration ([4]; Streptococcus pneumoniae clinical strain 5)?
**A.** The Minimum inhibitory concentration was 4.

**Q.** And the Minimum inhibitory concentration ([5]; Candida albicans clinical yeast strain 1)?
**A.** Its Minimum inhibitory concentration is 8.

**Q.** What about the Minimum inhibitory concentration ([5]; Candida albicans clinical yeast strain 2) of the same molecule?
**A.** Its Minimum inhibitory concentration is 8.

**Q.** And the Minimum inhibitory concentration ([5]; Candida albicans clinical yeast strain 3)?
**A.** The Minimum inhibitory concentration was 8.

**Q.** And the Minimum inhibitory concentration ([5]; Candida albicans clinical yeast strain 4)?
**A.** The Minimum inhibitory concentration was 8.

**Q.** And the Minimum inhibitory concentration ([5]; Candida albicans clinical yeast strain 5)?
**A.** The Minimum inhibitory concentration was 8.

**Q.** And the Minimum inhibitory concentration [6]?
**A.** The Minimum inhibitory concentration was 4.

**Q.** And the Minimum inhibitory concentration ([7]; Enterobacter cloacae clinical strain 1)?
**A.** The Minimum inhibitory concentration was 4.

**Q.** And the Minimum inhibitory concentration ([7]; Enterobacter cloacae clinical strain 2)?
**A.** The Minimum inhibitory concentration was 8.

**Q.** What about the Minimum inhibitory concentration ([7]; Enterobacter cloacae clinical strain 3) of the same molecule?
**A.** The Minimum inhibitory concentration was 4.

**Q.** And the Minimum inhibitory concentration ([7]; Enterobacter cloacae clinical strain 4)?
**A.** Its Minimum inhibitory concentration is 8.

**Q.** And the Minimum inhibitory concentration ([7]; Enterobacter cloacae clinical strain 5)?
**A.** The Minimum inhibitory concentration was 2.

**Q.** And the Minimum inhibitory concentration ([8]; Klebsiella pneumoniae clinical strain 1)?
**A.** Its Minimum inhibitory concentration is 8.

**Q.** What about the Minimum inhibitory concentration ([8]; Klebsiella pneumoniae clinical strain 2) of the same molecule?
**A.** The Minimum inhibitory concentration was 4.

**Q.** What about the Minimum inhibitory concentration ([8]; Klebsiella pneumoniae clinical strain 3) of the same molecule?
**A.** The Minimum inhibitory concentration was 16.

**Q.** And the Minimum inhibitory concentration ([8]; Klebsiella pneumoniae clinical strain 4)?
**A.** The Minimum inhibitory concentration was 4.

**Q.** And the Minimum inhibitory concentration ([8]; Klebsiella pneumoniae clinical strain 5)?
**A.** The Minimum inhibitory concentration was 2.

**Q.** And the Minimum inhibitory concentration ([9]; C. parapsilosis clinical yeast strain 1)?
**A.** The Minimum inhibitory concentration was 4.

**Q.** And the Minimum inhibitory concentration ([9]; C. parapsilosis clinical yeast strain 2)?
**A.** The Minimum inhibitory concentration was 4.

**Q.** And the Minimum inhibitory concentration ([9]; C. parapsilosis clinical yeast strain 3)?
**A.** Its Minimum inhibitory concentration is 8.

**Q.** What about the Minimum inhibitory concentration ([9]; C. parapsilosis clinical yeast strain 4) of the same molecule?
**A.** Its Minimum inhibitory concentration is 8.

**Q.** And the Minimum inhibitory concentration ([10]; Escherichia coli clinical strain 1)?
**A.** Its Minimum inhibitory concentration is 8.

**Q.** What about the Minimum inhibitory concentration ([10]; Escherichia coli clinical strain 2) of the same molecule?
**A.** Its Minimum inhibitory concentration is 1.

**Q.** And the Minimum inhibitory concentration ([10]; Escherichia coli clinical strain 3)?
**A.** Its Minimum inhibitory concentration is 1.

**Q.** What about the Minimum inhibitory concentration ([10]; Escherichia coli clinical strain 4) of the same molecule?
**A.** The Minimum inhibitory concentration was 1.

**Q.** What about the Minimum inhibitory concentration ([10]; Escherichia coli clinical strain 5) of the same molecule?
**A.** Its Minimum inhibitory concentration is 1.

**Q.** And the Minimum inhibitory concentration ([11]; Acinetobacter baumannii clinical strain 1)?
**A.** Its Minimum inhibitory concentration is 4.

**Q.** What about the Minimum inhibitory concentration ([11]; Acinetobacter baumannii clinical strain 2) of the same molecule?
**A.** Its Minimum inhibitory concentration is 4.

**Q.** What about the Minimum inhibitory concentration ([11]; Acinetobacter baumannii clinical strain 3) of the same molecule?
**A.** Its Minimum inhibitory concentration is 4.

**Q.** What about the Minimum inhibitory concentration ([11]; Acinetobacter baumannii clinical strain 4) of the same molecule?
**A.** The Minimum inhibitory concentration was 4.

**Q.** What about the Minimum inhibitory concentration ([11]; Acinetobacter baumannii clinical strain 5) of the same molecule?
**A.** Its Minimum inhibitory concentration is 4.

**Q.** What about the Minimum inhibitory concentration ([12]; Staphylococcus aureus clinical strain 1) of the same molecule?
**A.** Its Minimum inhibitory concentration is 1.

**Q.** What about the Minimum inhibitory concentration ([12]; Staphylococcus aureus clinical strain 2) of the same molecule?
**A.** Its Minimum inhibitory concentration is 2.

**Q.** What about the Minimum inhibitory concentration ([12]; Staphylococcus aureus clinical strain 3) of the same molecule?
**A.** The Minimum inhibitory concentration was 2.

**Q.** What about the Minimum inhibitory concentration ([12]; Staphylococcus aureus clinical strain 4) of the same molecule?
**A.** Its Minimum inhibitory concentration is 1.

**Q.** And the Minimum inhibitory concentration ([12]; Staphylococcus aureus clinical strain 5)?
**A.** Its Minimum inhibitory concentration is 1.

**Q.** And the Minimum inhibitory concentration ([13]; Proteus mirabilis clinical strain 1)?
**A.** The Minimum inhibitory concentration was greater than 128.

**Q.** And the Minimum inhibitory concentration ([13]; Proteus mirabilis clinical strain 2)?
**A.** Its Minimum inhibitory concentration is 32.

**Q.** What about the Minimum inhibitory concentration ([13]; Proteus mirabilis clinical strain 3) of the same molecule?
**A.** The Minimum inhibitory concentration was 64.

**Q.** And the Minimum inhibitory concentration ([13]; Proteus mirabilis clinical strain 4)?
**A.** Its Minimum inhibitory concentration is greater than 128.

**Q.** What about the Minimum inhibitory concentration ([13]; Proteus mirabilis clinical strain 5) of the same molecule?
**A.** Its Minimum inhibitory concentration is greater than 128.
